From patent publication US20120101100A1 (priority 2008, published 2012)
Counter-ions that a name gives are not always drawn.

Molecular target: S. aureus GyrB ATPase (Staphylococcus aureus, UniProt P0A0K8)
Experiment: S. aureus (SAU) GyrB ATPase inhibition, malachite green phosphate detection (E. coli GyrA + S. aureus GyrB)
Format: biochemical
Conditions: compound concentration of 1.0 μM unless otherwise noted; average value where assay was carried out more than once; read-out: S. aureus (SAU) GyrB ATPase % Inhibition
How it was run: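 E. coli GyrA and S. aureus GyrB (1.25 nM each) with 500 μM ATP and 5 μg/ml sheared salmon sperm DNA in 50 mM Hepes pH 7.5, 8.0 mM MgCl2. Released phosphate detected with ammonium molybdate/malachite green at 650 nm; 2% DMSO as 0% and 2 μM novobiocin as 100% inhibition; IC50 from 10 concentrations.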

S. aureus GyrB ATPase, sequence (P0A0K8 whole entry): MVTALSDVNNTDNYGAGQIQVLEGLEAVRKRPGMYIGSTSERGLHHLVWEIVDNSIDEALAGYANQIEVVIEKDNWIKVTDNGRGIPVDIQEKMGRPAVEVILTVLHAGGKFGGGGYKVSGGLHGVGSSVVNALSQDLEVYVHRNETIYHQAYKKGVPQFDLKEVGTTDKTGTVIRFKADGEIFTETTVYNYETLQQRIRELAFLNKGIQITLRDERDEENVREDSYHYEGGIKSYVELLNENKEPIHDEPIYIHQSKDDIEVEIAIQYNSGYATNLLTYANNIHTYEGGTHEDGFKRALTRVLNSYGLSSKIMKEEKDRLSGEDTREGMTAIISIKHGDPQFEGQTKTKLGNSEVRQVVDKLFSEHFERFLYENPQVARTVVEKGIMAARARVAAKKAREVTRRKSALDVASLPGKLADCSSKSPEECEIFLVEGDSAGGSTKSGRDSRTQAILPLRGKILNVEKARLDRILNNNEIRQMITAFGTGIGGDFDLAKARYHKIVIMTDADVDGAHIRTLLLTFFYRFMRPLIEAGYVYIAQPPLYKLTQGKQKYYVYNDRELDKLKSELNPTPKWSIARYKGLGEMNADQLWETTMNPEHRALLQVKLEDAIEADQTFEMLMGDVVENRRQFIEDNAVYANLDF
S. aureus GyrB ATPase, sequence (P0AES4 whole entry, further chain): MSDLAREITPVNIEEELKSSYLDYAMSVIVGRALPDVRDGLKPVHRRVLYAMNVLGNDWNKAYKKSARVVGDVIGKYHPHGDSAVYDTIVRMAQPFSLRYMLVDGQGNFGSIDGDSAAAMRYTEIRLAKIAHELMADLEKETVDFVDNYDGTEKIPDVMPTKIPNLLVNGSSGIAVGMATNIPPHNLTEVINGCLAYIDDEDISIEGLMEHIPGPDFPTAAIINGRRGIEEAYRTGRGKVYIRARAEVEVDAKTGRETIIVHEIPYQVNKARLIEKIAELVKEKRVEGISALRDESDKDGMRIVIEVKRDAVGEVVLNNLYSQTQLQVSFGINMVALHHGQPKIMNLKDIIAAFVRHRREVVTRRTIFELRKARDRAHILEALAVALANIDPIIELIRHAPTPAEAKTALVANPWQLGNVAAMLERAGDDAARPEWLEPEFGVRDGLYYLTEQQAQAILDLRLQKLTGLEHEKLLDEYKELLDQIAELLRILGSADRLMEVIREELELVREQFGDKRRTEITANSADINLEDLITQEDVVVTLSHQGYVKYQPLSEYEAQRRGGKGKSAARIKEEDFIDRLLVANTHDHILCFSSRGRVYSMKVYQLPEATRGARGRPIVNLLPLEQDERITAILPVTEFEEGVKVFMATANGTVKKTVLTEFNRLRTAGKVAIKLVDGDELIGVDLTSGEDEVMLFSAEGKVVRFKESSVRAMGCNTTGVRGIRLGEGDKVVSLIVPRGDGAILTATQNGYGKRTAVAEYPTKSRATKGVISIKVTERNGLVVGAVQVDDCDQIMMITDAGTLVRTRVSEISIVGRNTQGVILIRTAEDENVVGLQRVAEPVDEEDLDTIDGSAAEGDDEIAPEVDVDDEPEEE

| Compound | inhibition at 1 µM |
| --- | --- |
| CCNC(=O)Nc1cc(-c2nc(C(F)(F)F)c(C(=O)NC3CCCCC3)s2)c(-c2cncc(-c3nnc(C)o3)c2)cn1 [Example 70, N-cyclohexyl-2-(6-(3-ethylureido)-5′-(5-methyl-1,3,4-oxadiazol-2-yl)-3,3′-bipyridin-4-yl)-4-(trifluoromethyl)thiazole-5-carboxamide] | 96% |
| O=C(NCC(F)(F)F)Nc1cc(-c2nc(C(F)(F)F)cs2)c(-c2cncc(-c3n[nH]c(=O)o3)c2)cn1 [Example 49, 1-(5′-(5-oxo-4,5-dihydro-1,3,4-oxadiazol-2-yl)-4-(4-(trifluoromethyl)thiazol-2-yl)-3,3′-bipyridin-6-yl)-3-(2,2,2-trifluoroethyl)urea] | 99% |
| CCNC(=O)Nc1cc(-c2nc(C(F)(F)F)c(C(=O)NC3CCCC3)s2)c(-c2cncc(-c3nnc(C)o3)c2)cn1 [Example 68, N-cyclopentyl-2-(6-(3-ethylureido)-5′-(5-methyl-1,3,4-oxadiazol-2-yl)-3,3′-bipyridin-4-yl)-4-(trifluoromethyl)thiazole-5-carboxamide] | 96% |
| CCNC(=O)Nc1cc(-c2nc(-c3cnn(C)c3)cs2)c(-c2cncc(S(N)(=O)=O)c2)cn1 [Example 185] | 99% |
| CCNC(=O)Nc1cc(-c2nc(-c3ccccn3)cs2)c(-c2cncc(S(C)(=O)=O)c2)cn1 [Example 129] | 102% |
| CCNC(=O)Nc1cc(-c2nc(-c3cnn(C)c3)cs2)c(-c2cncc(-c3n[nH]c(=O)o3)c2)cn1 [Example 27, 1-ethyl-3-(4-(4-(1-methyl-1H-pyrazol-4-yl)thiazol-2-yl)-5′-(5-oxo-4,5-dihydro-1,3,4-oxadiazol-2-yl)-3,3′-bipyridin-6-yl)urea] | 109% |
| CCNC(=O)Nc1cc(-c2nc(C(F)(F)F)cs2)c(-c2cncc(-c3nnc(COCc4ccccc4)o3)c2)cn1 [Example 266, 1-(5′-(5-(benzyloxymethyl)-1,3,4-oxadiazol-2-yl)-4-(4-(trifluoromethyl)thiazol-2-yl)-3,3′-bipyridin-6-yl)-3-ethylurea] | 98% |
| CCNC(=O)Nc1cc(-c2nc(C(F)(F)F)cs2)c(-c2cncc(-c3nnc(N)o3)c2)cn1 [Example 136, 1-(5′-(5-Amino-1,3,4-oxadiazol-2-yl)-4-(4-(trifluoromethyl)thiazol-2-yl)-3,3′-bipyridin-6-yl)-3-ethylurea] | 102% |
| CCNC(=O)Nc1cc(-c2nc(C3CCCCC3)cs2)c(-c2cncc(-c3nnc(C)o3)c2)cn1 [Example 236, 1-(4-(4-cyclohexylthiazol-2-yl)-5′-(5-methyl-1,3,4-oxadiazol-2-yl)-3,3′-bipyridin-6-yl)-3-ethylurea] | 109% |
| CCNC(=O)Nc1cc(-c2nnc(-c3ccccc3)o2)c(-c2cnc(-c3n[nH]c(=O)o3)cn2)cn1 [Example 195] | 98% |
| CCNC(=O)Nc1cc(-c2nc(C(F)(F)F)cs2)c(-c2cc(-c3nnc([C@@H](N)C(C)C)o3)cnc2OCCN(CC)CC)cn1 [Example 122, 1-(5′-(5-(1-amino-2-methylpropyl)-1,3,4-oxadiazol-2-yl)-2′-(2-(diethylamino)ethoxy)-4-(4-(trifluoromethyl)thiazol-2-yl)-3,3′-bipyridin-6-yl)-3-ethylurea hydrochloride] | 102% |
| CCNC(=O)Nc1cc(-c2nc(C(F)(F)F)cs2)c(-c2cc(-c3n[nH]c(=O)o3)cnc2OC2CCN(C(C)C)CC2)cn1 [Example 219] | 97% |
| CCNC(=O)Nc1cc(-c2nc(C3CCN(C(=O)n4ccnc4)CC3)cs2)c(-c2cncc(-c3n[nH]c(=O)o3)c2)cn1 [Example 213] | 95% |
| CCCCOc1ncc(-c2cnc(NC(=O)NCC)cc2-c2nc(C(F)(F)F)cs2)cc1-c1nnc(C)o1 [Example 41] | 109% |
| CC(C)NC(=O)Nc1cc(-c2nc(C(F)(F)F)cs2)c(-c2cncc(-c3n[nH]c(=O)o3)c2)cn1 [Example 42, 1-isopropyl-3-(5′-(5-oxo-4,5-dihydro-1,3,4-oxadiazol-2-yl)-4-(4-(trifluoromethyl)thiazol-2-yl)-3,3′-bipyridin-6-yl)urea] | 106% |
